Data reported in patent US10532066B2, “Surfactant lipids, compositions thereof, and uses thereof” (National Jewish Health, priority 2007, dated 2020).
“Also recorded” adds a separate entry of the source.

Tests used:
[1] = test system: human alveolar macrophages; test: LPS-induced TNF-α production by primary human alveolar macrophages; format: cell-based; settings: LPS 10 ng/ml, phospholipids 20 μg/ml, 6 h
Experimental: FIG. 8. POPG, DMPG and PI antagonize the effects of LPS on primary human alveolar macrophages. Human alveolar macrophages were isolated from healthy volunteer BALF and plated onto a 96-well plate. Two days after plating, 10 ng/ml of LPS and 20 μg/ml of phospholipids were added to monolayer cultures of human alveolar macrophages. 6 h after stimulation, media were collected and TNF-α production was determined by ELISA. LPS stimulation without phospholipid was set at 100%. […] The average TNF-α secretion after LPS stimulation was 30.7±15.1 ng/ml. Significance—**: p<0.01, when compared with LPS stimulation in the absence of POPG.
Human alveolar macrophages were isolated from BALF of healthy volunteers using protocols reviewed and approved by the National Jewish Medical Research Center IRB and the University of Colorado General Clinical Research Center. The lungs were lavaged with pyrogen-free saline, and alveolar macrophages were sedimented by centrifugation at 150×g×5 min. Isolated macrophages were plated at 5×10^4 cells/well in 96-well plates (Falcon) in RPMI 1640 medium containing 10% BGS. The cells were allowed to adhere for 48 h and then used for the experiments after washing with PBS to remove the unattached cells.
U937 cells were induced to differentiate by treatment with 10 nM phorbol myristate acetate (PMA) for 48 h. The cells (1.3×10^5/well) were placed in 96-well plates and further incubated in the absence of PMA for 24 h in RPMI 1640 medium containing 10% BGS. Rat alveolar macrophages (5×10^5/well) were incubated in 24-well plates for 2 h after isolation. The indicated concentration of phospholipids was added to the cultures 30 min before adding LPS. After LPS addition cultures were incubated for 6 h at 37° C. at an atmosphere of 95% air and 5% CO2. At the end of the incubation period the medium was collected and assayed for TNF-α concentrations using an ELISA kit.
Human alveolar macrophages were isolated from healthy volunteer BALF and plated onto a 96-well plate. Two days after plating, 10 ng/ml of LPS and 20 μg/ml of phospholipids (POPG, DMPG and PI) were added to monolayer cultures of human alveolar macrophages. 6 h after stimulation, media were collected and TNF-α production was determined by ELISA. LPS stimulation without phospholipid was set at 100%. […] The average TNF-α secretion after LPS stimulation was 30.7±15.1 ng/ml. Significance—**: p<0.01, when compared with LPS stimulation in the absence of POPG.

human CD14 = molecular target: T1, human CD14 (Homo sapiens, UniProt P08571); test: CD14 binding to solid phase phospholipids (ELISA); settings: for binding of CD14 to solid phase lipid: varying CD14, 37° C. 1 h; for direct binding of CD14 to molecular species of PG: CD14 1 μg/ml, POPG = 100%
T1 construct: purchased Cell Sciences Inc. (Canton, Mass.)
T1 sequence (P08571 20-345): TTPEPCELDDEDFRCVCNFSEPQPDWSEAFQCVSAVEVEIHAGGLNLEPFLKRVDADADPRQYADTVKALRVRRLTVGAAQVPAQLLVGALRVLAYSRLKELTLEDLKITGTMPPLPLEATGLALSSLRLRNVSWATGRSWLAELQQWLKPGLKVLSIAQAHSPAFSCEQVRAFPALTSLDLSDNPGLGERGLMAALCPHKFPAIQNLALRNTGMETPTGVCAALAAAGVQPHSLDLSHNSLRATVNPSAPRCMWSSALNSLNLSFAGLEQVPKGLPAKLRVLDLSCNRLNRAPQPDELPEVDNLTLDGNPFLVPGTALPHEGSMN
Experimental: FIG. 12. CD14 binds to solid phase lipids. […] Nonspecific binding was blocked with 20 mM Tris buffer (pH 7.4) containing 0.15 M NaCl, 5 mM CaCl2 (in the upper panel) or 2 mM EGTA (in the lower panel), and 5% (wt/vol) BSA (buffer A).
(§1) FIG. 13. PG Inhibits CD14 binding to solid phase LPS. (A) Various types of PG were coated onto microtiter plates, and incubated with CD14 (1 μg/ml) at 37° C. for 1 h. […] Types of PG shown on the graph are: dilauroylphosphatidylglycerol (DLPG), dimyristoyl-phosphatidylglycerol (DMPG), dipalmitoylphosphatidylglycerol (DPPG), and 16:0/18:1; palmitoyl-oleoyl-phosphatidylglycerol (POPG). […] The binding of CD14 to LPS was detected using anti-CD14 monoclonal antibody. The ELISA based absorbance of CD14 bound to LPS was defined as 100%.
The wells were then washed with 20 mM Tris buffer (pH 7.4) containing 0.15 M NaCl and 5 mM CaCl2 or 2 mM EGTA (buffer B), and 1 μg/ml anti-human CD14 IgG or anti-His antibody (50 μl/well) in buffer A was added and incubated overnight at 4° C., followed by the incubation with horseradish peroxidase (HRP)-labeled anti-mouse IgG (1:5000) for 1 h. After washing the wells with buffer B, the peroxidase reaction was finally performed using o-phenylenediamine as a substrate. The binding of CD14 or MD-2 to phospholipids was detected by measuring absorbance at 490 nm.

CD14 binding to LPS = molecular target: T2, CD14 binding to LPS (Homo sapiens, UniProt P08571); test: Phospholipid competition for CD14 binding to solid phase LPS; settings: CD14 1 μg/ml, liposomes 20 μg/ml
T2 construct: purchased Cell Sciences Inc. (Canton, Mass.)
T2 sequence (P08571 20-345): T1 sequence (P08571 20-345)
Experimental: as §1

[2] = test system: differentiated U937 cells; test: LPS-induced TNF-α production by U937 cells in serum free media (without LBP); format: cell-based, human; settings: for LPS-induced synthesis and secretion of TNF-α in serum free media: LPS 10 ng/ml, 6 h, without LBP; for potency as LPS antagonist without LBP: serum free media compared with serum
Experimental: U937 cells were induced to differentiate by incubation in medium containing 10 nM of phorbol myristate acetate (PMA) for 48 h. The cells (1.3×10^5/well) were placed on 96-well plates and further incubated in the absence of PMA for 24 h in RPMI 1640 medium containing 10% BGS. After the cells were washed with PBS, the indicated concentration of phospholipids was preincubated with the cells in RPMI without serum for 30 min before adding LPS. The indicated amount of LPS was then added into the well and incubated for 6 h at 37° C. with 5% CO2. The culture medium was collected and assayed for TNF-α secretion using an ELISA kit (Invitrogen).

BALB/c mice = test: Lung inflammation induced by intratracheally administered LPS; settings: LPS 1 μg + phospholipids 30 μg sprayed into trachea, 18 h
Experimental: A mixture of LPS (1 μg) and phospholipids (30 μg) in 20 μl of PBS was sprayed into murine trachea using a MicroSprayer™ aerosolizer. At 18 h after stimulation, lungs were lavaged via the trachea. TNF-α production (A) was determined by ELISA. The number of leukocytes was counted and differential cell counts (B) were determined from at least 300 cells on cytocentrifuged preparations. Mouse KC (C) and MIP-2 (D) secretion were determined using Quantikine kits (R&D System). The data shown are the means±S.E. from six to eight mice.
Human and mouse TNF-α ELISA kits were purchased from BioSource (Camarillo, Calif.). Mouse KC and MIP-2 Quantikine kits were purchased from R&D System. Measurements of these cytokines were according to the manufacturers' protocols.
Female BALB/c mice from 6 to 8 weeks of age were obtained from Jackson Laboratories (Bar Harbor, Me.). Experiments were conducted under a protocol approved by the Institutional Animal Care and Use Committee of the National Jewish Medical and Research Center. Liposomes were formed using a Liposofast™ (Avestin; Ottawa, Canada), which makes unilamellar liposomes of 100 nm of diameter, and then mixed with an aqueous solution containing LPS. The mixture of LPS and phospholipids was sprayed into murine trachea using a MicroSprayer™ aerosolizer (PennCentury, Philadelphia, Pa.) under isoflurene anesthesia. […] After stimulation, lungs were lavaged via the trachea with 1 ml of Hank's balanced salt solution (Invitrogen Corporation, Carlsbad, Calif.). The volume of collected BALF was measured in each sample and the number of leukocytes was counted (Coulter Counter; Coulter Corporation, Hialeah, Fla.). Differential cell counts were determined from at least 300 cells on cytocentrifuged preparations (Cytospin; Shandon Ltd., Runcorn, Cheshire, UK). Slides were stained with modified Wright-Giemsa (Hema; Protocol, Swedesboro, N.J.) and the cell populations differentiated by standard hematologic procedures. Cytokine levels in the BALF or in the supernatants of cultured airway macrophages were measured using ELISA kits.

| Molecule | LPS-induced TNF-α production [1] | binding of CD14 to solid phase lipid (human CD14; 1.25 nmole lipid per well) | inhibition of CD14 binding to solid phase LPS (CD14 binding to LPS) | LPS-induced synthesis and secretion of TNF-α in serum free media [2] | potency as LPS antagonist without LBP [2] | KC secretion in BALF (BALB/c mice) | LPS-induced neutrophil infiltration (BALB/c mice) | MIP-2 secretion in BALF (BALB/c mice) | TNF-α secretion in the lung (BALF) (BALB/c mice) | direct binding of CD14 to molecular species of PG (human CD14) | LPS-induced TNF-α production ([1]; listed as dimyristoyl PG) | binding of CD14 relative to the levels of POPG binding (human CD14; 1.25 nmole lipid per well) |
| --- | --- | --- | --- | --- | --- | --- | --- | --- | --- | --- | --- | --- |
| phosphatidylinositol [PI] | markedly attenuate; also recorded: antagonize | strongly bound | fails to compete | still inhibited | modestly diminished | attenuated | modestly attenuated | attenuated | significantly attenuated |  |  |  |
| CCCCCCCC/C=C\CCCCCCCC(=O)O[C@H](COC(=O)CCCCCCCCCCCCCCC)COP(=O)(O)OCC(O)CO (stereo partly drawn) [POPG, palmitoyl-oleoyl-phosphatidylglycerol] | markedly attenuate; also recorded: antagonize | strongly bound | almost completely inhibits; also recorded: most effective inhibitors | still inhibited | modestly diminished | especially POPG attenuated | modestly attenuated | especially POPG attenuated | significantly attenuated | strongest direct binding interactions |  |  |
| CCCCCCCCCCCCCC(=O)OCC(COP(=O)(O)OCC(O)CO)OC(=O)CCCCCCCCCCCCC (stereo not drawn) [DMPG, dimyristoyl-phosphatidylglycerol] | antagonize |  | most effective inhibitors | still inhibited | continues to remain high | attenuated | modestly attenuated | attenuated | significantly attenuated | strongest direct binding interactions | markedly attenuate |  |
| CCCCCCCCCCCCCCCC(=O)OCC(COP(=O)(O)OCC(O)CO)OC(=O)CCCCCCCCCCCCCCC (stereo not drawn) [DPPG, dipalmitoyl-phosphatidylglycerol, reference compound] | no significant effect |  | weakly competes |  |  |  |  |  |  | nearly the same extent as POPG and DMPG |  |  |
| CCCCCCCCCCCCCCCC(=O)OC[C@H](COP(=O)([O-])OCC[N+](C)(C)C)OC(=O)CCCCCCCCCCCCCCC [DPPC, dipalmitoyl-phosphatidylcholine, reference compound] | no significant effect |  |  |  |  |  | not |  | unaffected |  |  | approximately 30% |
